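Where inhibition never reached the appropriate level, the endpoint shown equals the highest concentration tested. Otherwise, values were interpolated linearly from a five-concentration, 48-hour dose response in 96-well plates. At the GI50, growth is halved.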 Active and inactive are the calls of the source. No stated cut-off is given here; in the data, active = GI50 up to about 1.1 µM and inactive = higher.
Key:
Experiment in all cases: NCI tumour cell line growth inhibition, 48 h
[1] = tested on: RXF 393
[2] = tested on: RPMI-8226
[3] = tested on: SK-MEL-2
[4] = tested on: NCI-H460
[5] = tested on: UO-31
[6] = tested on: HT-29
[7] = tested on: NCI/ADR-RES
[8] = tested on: T47D
[9] = tested on: NCI-H522
[10] = tested on: EKVX
[11] = tested on: K562
[12] = tested on: DU-145
[13] = tested on: IGROV-1
[14] = tested on: HCC 2998
[15] = tested on: HL-60
[16] = tested on: MOLT-4
[17] = tested on: HOP-92
[18] = tested on: 786-0
[19] = tested on: M14

SMILES | GI50 [1] | GI50 [2] | GI50 [3] | GI50 [4] | GI50 [5] | GI50 [6] | GI50 [7] | GI50 [8] | GI50 [9] | GI50 [10] | GI50 [11] | GI50 [12] | GI50 [13] | GI50 [14] | GI50 [15] | GI50 [16] | GI50 [17] | GI50 [18] | GI50 [19]
CC(C)CC(=O)NC(NC(C)C)(C(F)(F)F)C(F)(F)F | > 100 µM (inactive) | > 100 µM (inactive) | > 100 µM (inactive) | > 100 µM (inactive) | > 100 µM (inactive) | > 100 µM (inactive) | > 100 µM (inactive) | > 100 µM (inactive) | > 100 µM (inactive) | > 100 µM (inactive) | > 100 µM (inactive) | > 100 µM (inactive) | > 100 µM (inactive) | > 100 µM (inactive) | 60.5 µM (inactive) | > 100 µM (inactive) | > 100 µM (inactive) | > 100 µM (inactive) | 
BC(=O)NC(CC(C)C)C(=O)NCC(=O)NC1c2ccsc2C(=O)C1O.CN(C)C (centres undefined) | > 100 µM (inactive) | > 100 µM (inactive) | > 100 µM (inactive) | 31.6 µM (inactive) | > 100 µM (inactive) | > 100 µM (inactive) | > 100 µM (inactive) | > 100 µM (inactive) | > 100 µM (inactive) | > 100 µM (inactive) | 31.6 µM (inactive) | > 100 µM (inactive) | > 100 µM (inactive) | > 100 µM (inactive) | > 100 µM (inactive) | > 100 µM (inactive) | > 100 µM (inactive) | > 100 µM (inactive) | > 100 µM (inactive)
O=S(=O)(O)c1ccc(/N=N/c2ccccc2)cc1 | > 100 µM (inactive) | > 100 µM (inactive) | > 100 µM (inactive) | > 100 µM (inactive) | > 100 µM (inactive) | > 100 µM (inactive) | > 100 µM (inactive) | > 100 µM (inactive) | > 100 µM (inactive) | > 100 µM (inactive) | > 100 µM (inactive) | > 100 µM (inactive) | > 100 µM (inactive) | > 100 µM (inactive) | > 100 µM (inactive) | > 100 µM (inactive) | > 100 µM (inactive) | > 100 µM (inactive) | > 100 µM (inactive)
Nc1nc(Cl)cc(Oc2ccc(Cl)cc2)n1 | > 100 µM (inactive) | > 55.6 µM (inactive) | > 100 µM (inactive) | > 54.7 µM (inactive) | 29.9 µM (inactive) | > 100 µM (inactive) | > 70.3 µM (inactive) | 32.4 µM (inactive) | 22.6 µM (inactive) | > 100 µM (inactive) | > 55.8 µM (inactive) | > 56.2 µM (inactive) | > 100 µM (inactive) | > 55.2 µM (inactive) | > 68.9 µM (inactive) | > 60.5 µM (inactive) | 23.2 µM (inactive) | > 59 µM (inactive) | > 57 µM (inactive)
COC1=CC(=O)c2c(cc(COP(N)(=O)N(CCCl)CCCl)n2C)C1=O (centres undefined) | 0.457 µM (active) | 1.37 µM (inactive) | 1.84 µM (inactive) | 0.123 µM (active) | 0.557 µM (active) | 0.186 µM (active) | 3.29 µM (inactive) | < 0.0486 µM (active) | 0.0746 µM (active) | 0.676 µM (active) | 1.52 µM (inactive) | 1.75 µM (inactive) | 0.17 µM (active) | 0.446 µM (active) | 0.302 µM (active) | 0.0141 µM (active) | 1.41 µM (inactive) | 0.0277 µM (active) | 0.826 µM (active)
O=C(N/N=C\C=C\c1ccc([N+](=O)[O-])o1)C(=O)N/N=C\C=C\c1ccc([N+](=O)[O-])o1 | > 100 µM (inactive) | 28.4 µM (inactive) | > 100 µM (inactive) | > 100 µM (inactive) | > 100 µM (inactive) | > 100 µM (inactive) | 26 µM (inactive) | 36.2 µM (inactive) | > 100 µM (inactive) | > 100 µM (inactive) | > 100 µM (inactive) | > 100 µM (inactive) | 78.2 µM (inactive) | > 100 µM (inactive) | 20 µM (inactive) | 24.1 µM (inactive) | > 100 µM (inactive) | > 100 µM (inactive) | 32.1 µM (inactive)
N#C/C(=C\N1CCNC1=S)C(=O)c1ccc2ccccc2c1 | > 100 µM (inactive) | 89.7 µM (inactive) | > 100 µM (inactive) | > 100 µM (inactive) | > 100 µM (inactive) | > 100 µM (inactive) | > 100 µM (inactive) | 67 µM (inactive) | > 100 µM (inactive) | > 100 µM (inactive) | > 100 µM (inactive) | > 100 µM (inactive) | > 100 µM (inactive) | > 100 µM (inactive) | 7.06 µM (inactive) | 37.4 µM (inactive) | > 100 µM (inactive) | > 100 µM (inactive) | > 100 µM (inactive)
O=c1oc2ccc3ccccc3c2cc1-c1cn2ccsc2n1 | 17.3 µM (inactive) | 11.5 µM (inactive) | > 100 µM (inactive) | 51.5 µM (inactive) | 14.6 µM (inactive) | 18 µM (inactive) | 29.1 µM (inactive) | 13 µM (inactive) | 17.1 µM (inactive) | 16.1 µM (inactive) | 17.3 µM (inactive) | 19.9 µM (inactive) | 0.646 µM (active) | 16.7 µM (inactive) | 17.8 µM (inactive) | 3.41 µM (inactive) | 13 µM (inactive) | 17.9 µM (inactive) | 24 µM (inactive)
Cc1noc(NS(=O)(=O)c2ccc(NC(=O)c3ccc4[nH]c5ccccc5c(=O)c4c3)cc2)c1C | 36.4 µM (inactive) | 50.4 µM (inactive) | 32.1 µM (inactive) | 87.9 µM (inactive) | 75 µM (inactive) | 39.3 µM (inactive) | > 100 µM (inactive) | 26.1 µM (inactive) | 26.4 µM (inactive) | 80.4 µM (inactive) | 28.1 µM (inactive) | > 100 µM (inactive) | > 100 µM (inactive) | 22.3 µM (inactive) | 27.4 µM (inactive) | 21.9 µM (inactive) | 37.3 µM (inactive) | 46.2 µM (inactive) | > 100 µM (inactive)
CSc1ccc2c(c1)C(N1CCN(C)CC1)Cc1ccccc1S2 (centres undefined) | 2.81 µM (inactive) | 1.91 µM (inactive) | 2.72 µM (inactive) | 2.47 µM (inactive) | 3.63 µM (inactive) | 2.33 µM (inactive) | 5.56 µM (inactive) | 8.04 µM (inactive) | 2.99 µM (inactive) | 3.34 µM (inactive) | 1.94 µM (inactive) | 10.7 µM (inactive) | 2.17 µM (inactive) | 11.1 µM (inactive) | 2.69 µM (inactive) | 2.47 µM (inactive) | 1.49 µM (inactive) | 4.47 µM (inactive) | 1.95 µM (inactive)
CCOC(=O)[C@@H]1[C@@H]2NC(=O)N[C@@]1(C)Oc1ccccc12 | > 100 µM (inactive) | > 100 µM (inactive) | > 100 µM (inactive) | > 100 µM (inactive) | > 100 µM (inactive) | > 100 µM (inactive) | > 100 µM (inactive) | > 100 µM (inactive) | > 100 µM (inactive) | > 100 µM (inactive) | > 100 µM (inactive) | > 100 µM (inactive) | > 100 µM (inactive) | > 100 µM (inactive) | > 100 µM (inactive) | > 100 µM (inactive) | > 100 µM (inactive) | > 100 µM (inactive) | > 100 µM (inactive)
O=C(/C=C/c1cccc(Br)c1)c1ccc(Cl)cc1 | 17.8 µM (inactive) | 2.08 µM (inactive) | 15.3 µM (inactive) | 16.9 µM (inactive) | 15.5 µM (inactive) | 11.2 µM (inactive) | 21.7 µM (inactive) | 12.8 µM (inactive) | 13.6 µM (inactive) | 16 µM (inactive) | 6.58 µM (inactive) | 14.8 µM (inactive) | 17.1 µM (inactive) | 18.8 µM (inactive) | 14.3 µM (inactive) | 5.93 µM (inactive) | 15 µM (inactive) | 14.3 µM (inactive) | 14.6 µM (inactive)
C=C(Br)COc1ccc2c(C)cc(=O)oc2c1 | 0.0721 µM (active) | 44.6 µM (inactive) | > 100 µM (inactive) | 88.5 µM (inactive) | 64.1 µM (inactive) | 66.4 µM (inactive) | 47.4 µM (inactive) | 20.2 µM (inactive) | 42.6 µM (inactive) | 43.3 µM (inactive) | 49 µM (inactive) | > 100 µM (inactive) | 49.3 µM (inactive) | 95.3 µM (inactive) | 40.2 µM (inactive) | 34.4 µM (inactive) | 12.5 µM (inactive) | > 100 µM (inactive) | > 100 µM (inactive)
CCCCCNC1=CC(=O)c2ccccc2C1=O | 21.7 µM (inactive) | > 91.8 µM (inactive) | 21.6 µM (inactive) | 34.5 µM (inactive) | > 51.6 µM (inactive) | 69.2 µM (inactive) | 45.3 µM (inactive) | 27.5 µM (inactive) | 19.7 µM (inactive) | > 58.9 µM (inactive) | > 100 µM (inactive) | 53.3 µM (inactive) | 33.2 µM (inactive) | > 78.2 µM (inactive) | 18.5 µM (inactive) | > 100 µM (inactive) | 17.4 µM (inactive) | 18.4 µM (inactive) | > 62.4 µM (inactive)
C=C1C(=O)O[C@H]2[C@H]3O[C@@H](C[C@@H]12)[C@](C)(O)CC[C@@H]1O[C@@]1(C)CCC[C@H]3C | 13 µM (inactive) | 47.2 µM (inactive) | 15.9 µM (inactive) | 24.8 µM (inactive) | 22.2 µM (inactive) | 25.6 µM (inactive) | 26.9 µM (inactive) | 25.5 µM (inactive) | 18.1 µM (inactive) | 15.6 µM (inactive) | 23 µM (inactive) | 12.6 µM (inactive) | 14.7 µM (inactive) | 25.8 µM (inactive) | 27 µM (inactive) | 30.3 µM (inactive) | 16.4 µM (inactive) | 11.7 µM (inactive) | 12 µM (inactive)
